Data as given in ChEMBL document CHEMBL1158870, “Antitumor agents. 180. Chemical Studies and cytotoxic evaluation of cumingianosides and cumindysoside A, antileukemic triterpene glucosides with a 14,18-cycloapotirucallane skeleton” (1997).

Tests used:
CCRF-CEM = test: Cytotoxicity against human CCRF-CEM cells by SRB assay; assay type: functional
[1] = Cytotoxicity against human HL60(TB) cells by SRB assay; assay type: functional, HL-60(TB); conditions: HL-60
K562 = test: Cytotoxicity against human K562 cells by SRB assay; assay type: functional
MOLT-4 = test: Cytotoxicity against human MOLT4 cells by SRB assay; assay type: functional
RPMI-8226 = test: Cytotoxicity against human RPMI8226 cells by SRB assay; assay type: functional
SR = test: Cytotoxicity against human SR cells by SRB assay; assay type: functional
A549 = test: Cytotoxicity against human A549 cells by SRB assay; assay type: functional
EKVX = test: Cytotoxicity against human EKVX cells by SRB assay; assay type: functional
HOP-62 = test: Cytotoxicity against human HOP62 cells by SRB assay; assay type: functional
HOP-92 = test: Cytotoxicity against human HOP92 cells by SRB assay; assay type: functional
NCI-H226 = test: Cytotoxicity against human NCI-H226 cells by SRB assay; assay type: functional
NCI-H23 = test: Cytotoxicity against human NCI-H23 cells by SRB assay; assay type: functional
NCI-H322M = test: Cytotoxicity against human NCI-H322M cells by SRB assay; assay type: functional
NCI-H460 = test: Cytotoxicity against human NCI-H460 cells by SRB assay; assay type: functional
NCI-H522 = test: Cytotoxicity against human NCI-H522 cells by SRB assay; assay type: functional
COLO 205 = test: Cytotoxicity against human COLO205 cells by SRB assay; assay type: functional
HCC 2998 = test: Cytotoxicity against human HCC2998 cells by SRB assay; assay type: functional
HCT-116 = test: Cytotoxicity against human HCT116 cells by SRB assay; assay type: functional
HCT-15 = test: Cytotoxicity against human HCT15 cells by SRB assay; assay type: functional
HT-29 = test: Cytotoxicity against human HT29 cells by SRB assay; assay type: functional
KM12 = test: Cytotoxicity against human KM12 cells by SRB assay; assay type: functional
SW-620 = test: Cytotoxicity against human SW620 cells by SRB assay; assay type: functional
SF-268 = test: Cytotoxicity against human SF268 cells by SRB assay; assay type: functional
SF-295 = test: Cytotoxicity against human SF295 cells by SRB assay; assay type: functional
SNB-19 = test: Cytotoxicity against human SNB19 cells by SRB assay; assay type: functional
SNB-75 = test: Cytotoxicity against human SNB75 cells by SRB assay; assay type: functional
U-251 = test: Cytotoxicity against human U251 cells by SRB assay; assay type: functional
LOX IMVI = test: Cytotoxicity against human LOXIMVI cells by SRB assay; assay type: functional
Malme-3M = test: Cytotoxicity against human MALME-3M cells by SRB assay; assay type: functional
M14 = test: Cytotoxicity against human M14 cells by SRB assay; assay type: functional
SK-MEL-2 = test: Cytotoxicity against human SK-MEL-2 cells by SRB assay; assay type: functional
SK-MEL-28 = test: Cytotoxicity against human SK-MEL-28 cells by SRB assay; assay type: functional
SK-MEL-5 = test: Cytotoxicity against human SK-MEL-5 cells by SRB assay; assay type: functional
UACC-257 = test: Cytotoxicity against human UACC257 cells by SRB assay; assay type: functional
UACC-62 = test: Cytotoxicity against human UACC62 cells by SRB assay; assay type: functional
IGROV-1 = test: Cytotoxicity against human IGROV1 cells by SRB assay; assay type: functional
OVCAR-3 = test: Cytotoxicity against human OVCAR-3 cells by SRB assay; assay type: functional
OVCAR-4 = test: Cytotoxicity against human OVCAR4 cells by SRB assay; assay type: functional
OVCAR-5 = test: Cytotoxicity against human OVCAR5 cells by SRB assay; assay type: functional
OVCAR-8 = test: Cytotoxicity against human OVCAR8 cells by SRB assay; assay type: functional
SK-OV-3 = test: Cytotoxicity against human SKOV3 cells by SRB assay; assay type: functional
[2] = Cytotoxicity against human 786-O cells by SRB assay; assay type: functional; conditions: 786-0
A498 = test: Cytotoxicity against human A498 cells by SRB assay; assay type: functional
ACHN = test: Cytotoxicity against human ACHN cells by SRB assay; assay type: functional
CAKI-1 = test: Cytotoxicity against human Caki1 cells by SRB assay; assay type: functional
RXF 393 = test: Cytotoxicity against human RXF393 cells by SRB assay; assay type: functional
SN12C = test: Cytotoxicity against human SN12C cells by SRB assay; assay type: functional
UO-31 = test: Cytotoxicity against human UO31 cells by SRB assay; assay type: functional
PC-3 = test: Cytotoxicity against human PC3 cells by SRB assay; assay type: functional
DU-145 = test: Cytotoxicity against human DU145 cells by SRB assay; assay type: functional
MCF7 = test: Cytotoxicity against human MCF7 cells by SRB assay; assay type: functional
[3] = Cytotoxicity against human MCF7/ADR cells by SRB assay; assay type: functional; conditions: NCI/ADR-RES
MDA-MB-231 = test: Cytotoxicity against human MDA-MB-231 cells by SRB assay; assay type: functional
[4] = Cytotoxicity against human Hs 578T cells by SRB assay; assay type: functional
MDA-MB-435 = test: Cytotoxicity against human MDA-MB-435 cells by SRB assay; assay type: functional
MDA-N = test: Cytotoxicity against human MDA-N cells by SRB assay; assay type: functional
BT-549 = test: Cytotoxicity against human BT549 cells by SRB assay; assay type: functional
T47D = test: Cytotoxicity against human T47D cells by SRB assay; assay type: functional
Leukemia cell = test: Cytotoxicity against human Leukemia cells by SRB assay; assay type: functional
NSCLC = test: Cytotoxicity against human NSCLC cells by SRB assay; assay type: functional
[5] = Cytotoxicity against human Colon cancer cells by SRB assay; assay type: functional; conditions: Cancer cell lines
[6] = Cytotoxicity against human CNS cancer cells by SRB assay; assay type: functional; conditions: Cancer cell lines
[7] = Cytotoxicity against human melanoma cells by SRB assay; assay type: functional; conditions: Melanoma cell
[8] = Cytotoxicity against human ovarian cancer cells by SRB assay; assay type: functional; conditions: Cancer cell lines
[9] = Cytotoxicity against human prostate cancer cells by SRB assay; assay type: functional; conditions: Cancer cell lines
[10] = Cytotoxicity against human breast cancer cells by SRB assay; assay type: functional; conditions: Cancer cell lines
[11] = Cytotoxicity against human renal cancer cells by SRB assay; assay type: functional; conditions: Cancer cell lines

CC(=O)OC[C@H]1O[C@@H](O[C@@H]2C[C@H]3C(C)(C)[C@H](OC(C)=O)CC[C@]3(C)[C@H]3CC[C@@H]4[C@]5(CC[C@@]4(C)[C@@]32C)O[C@@H]([C@H](O)C(C)(C)O)C[C@@H]5C)[C@H](O)[C@@H](O)[C@@H]1O
GI50 (CCRF-CEM): 3.16 µM | GI50 [1]: 2.95 µM | GI50 (K562): 4.47 µM | GI50 (MOLT-4): 3.16 µM | GI50 (RPMI-8226): 3.39 µM | GI50 (SR): 3.09 µM | GI50 (A549): 5.13 µM | GI50 (EKVX): 9.55 µM | GI50 (HOP-62): 14.1 µM | GI50 (HOP-92): 10 µM | GI50 (NCI-H226): 10.7 µM | GI50 (NCI-H23): 12.9 µM | GI50 (NCI-H322M): 1.7 µM | GI50 (NCI-H460): 6.61 µM | GI50 (NCI-H522): 7.08 µM | GI50 (COLO 205): 4.07 µM | TGI (COLO 205): 14.3 µM | GI50 (HCC 2998): 3.63 µM | TGI (HCC 2998): 15.9 µM | GI50 (HCT-116): 3.8 µM | TGI (HCT-116): 15.1 µM | GI50 (HCT-15): 2.19 µM | TGI (HCT-15): 5.9 µM | GI50 (HT-29): 1.82 µM | TGI (HT-29): 4.3 µM | GI50 (KM12): 2 µM | TGI (KM12): 7.7 µM | GI50 (SW-620): 10.5 µM | TGI (SW-620): 22.9 µM | GI50 (SF-268): 9.33 µM | GI50 (SF-295): 6.46 µM | GI50 (SNB-19): 12.6 µM | GI50 (SNB-75): 5.13 µM | GI50 (U-251): 10.7 µM | GI50 (LOX IMVI): 3.63 µM | GI50 (Malme-3M): 10.2 µM | GI50 (M14): 5.01 µM | GI50 (SK-MEL-2): 6.03 µM | GI50 (SK-MEL-28): 10.2 µM | GI50 (SK-MEL-5): 10.7 µM | GI50 (UACC-257): 11.5 µM | GI50 (UACC-62): 6.31 µM | GI50 (IGROV-1): 9.55 µM | GI50 (OVCAR-3): 7.08 µM | GI50 (OVCAR-4): 3.39 µM | GI50 (OVCAR-5): 5.13 µM | GI50 (OVCAR-8): 9.33 µM | GI50 (SK-OV-3): 7.94 µM | GI50 [2]: 8.71 µM | GI50 (A498): 11.7 µM | GI50 (ACHN): 9.33 µM | GI50 (CAKI-1): 25.7 µM | GI50 (RXF 393): 4.07 µM | GI50 (SN12C): 11.2 µM | GI50 (UO-31): 7.76 µM | GI50 (PC-3): 3.8 µM | GI50 (DU-145): 10.7 µM | GI50 (MCF7): 1.07 µM | GI50 [3]: 16.2 µM | GI50 (MDA-MB-231): 10.2 µM | GI50 [4]: 9.33 µM | GI50 (MDA-MB-435): 8.32 µM | GI50 (MDA-N): 7.08 µM | GI50 (BT-549): 12 µM | GI50 (T47D): 5.62 µM | TGI (Leukemia cell): 17.3 µM | TGI (NSCLC): 21.8 µM | TGI [5]: 12.3 µM | TGI [6]: 22.2 µM | TGI [7]: 20.7 µM | TGI [8]: 20.1 µM | TGI [9]: 18.5 µM | TGI [10]: 21.3 µM | TGI [11]: 20.5 µM

COC(C)(C)[C@@H](O)[C@H](O)C[C@H](C)C1=C2CC[C@@H]3[C@@]4(C)CC[C@@H](OC(C)=O)C(C)(C)[C@@H]4C[C@@H](O[C@@H]4O[C@H](COC(C)=O)[C@@H](O)[C@H](O)[C@H]4O)[C@@]3(C)[C@]2(C)CC1
GI50 (CCRF-CEM): 5.37 µM | GI50 [1]: 3.63 µM | GI50 (K562): 6.03 µM | GI50 (MOLT-4): 5.13 µM | GI50 (RPMI-8226): 4.17 µM | GI50 (SR): 3.09 µM | GI50 (A549): 7.76 µM | GI50 (EKVX): 12.9 µM | GI50 (HOP-62): 14.5 µM | GI50 (HOP-92): 12.9 µM | GI50 (NCI-H226): 13.2 µM | GI50 (NCI-H23): 14.5 µM | GI50 (NCI-H322M): 12.9 µM | GI50 (NCI-H460): 9.12 µM | GI50 (NCI-H522): 12.3 µM | GI50 (COLO 205): 10.7 µM | TGI (COLO 205): 22.8 µM | GI50 (HCC 2998): 3.98 µM | TGI (HCC 2998): 13.4 µM | GI50 (HCT-116): 6.03 µM | TGI (HCT-116): 19.2 µM | GI50 (HCT-15): 11 µM | TGI (HCT-15): 23.8 µM | GI50 (HT-29): 5.13 µM | TGI (HT-29): 16.9 µM | GI50 (KM12): 3.55 µM | TGI (KM12): 18.9 µM | GI50 (SW-620): 15.8 µM | TGI (SW-620): 30.1 µM | GI50 (SF-268): 10.2 µM | GI50 (SF-295): 11.5 µM | GI50 (SNB-19): 12.3 µM | GI50 (SNB-75): 3.89 µM | GI50 (U-251): 5.37 µM | GI50 (LOX IMVI): 6.31 µM | GI50 (Malme-3M): 15.1 µM | GI50 (M14): 12.3 µM | GI50 (SK-MEL-2): 13.2 µM | GI50 (SK-MEL-28): 11.7 µM | GI50 (SK-MEL-5): 14.5 µM | GI50 (UACC-257): 12.6 µM | GI50 (UACC-62): 8.71 µM | GI50 (IGROV-1): 13.2 µM | GI50 (OVCAR-3): 7.41 µM | GI50 (OVCAR-4): 10.7 µM | GI50 (OVCAR-5): 14.8 µM | GI50 (OVCAR-8): 12.9 µM | GI50 (SK-OV-3): 15.1 µM | GI50 [2]: 14.5 µM | GI50 (A498): 14.1 µM | GI50 (ACHN): 10.5 µM | GI50 (CAKI-1): 4.07 µM | GI50 (RXF 393): 6.92 µM | GI50 (SN12C): 13.5 µM | GI50 (UO-31): 13.5 µM | GI50 (PC-3): 5.62 µM | GI50 (DU-145): 15.1 µM | GI50 (MCF7): 2.63 µM | GI50 [3]: 15.1 µM | GI50 (MDA-MB-231): 11.5 µM | GI50 [4]: 11.7 µM | GI50 (MDA-MB-435): 12.3 µM | GI50 (MDA-N): 11.7 µM | GI50 (BT-549): 15.1 µM | GI50 (T47D): 12.6 µM | TGI (Leukemia cell): 20.9 µM | TGI (NSCLC): 25.6 µM | TGI [5]: 20.7 µM | TGI [6]: 23.8 µM | TGI [7]: 29.9 µM | TGI [8]: 25.6 µM | TGI [9]: 23.5 µM | TGI [10]: 24.8 µM | TGI [11]: 23.6 µM
